Data from patent US5536848A, “Bioactive acetogenins and derivatives” (Purdue Research Foundation, priority 1994, dated 1996).
Values after ≈ are worked out from the molar mass of the structure shown. Read-outs that look alike come from different tables or passages of the source.

Key:
[1] = tested on: MCF-7 (human breast carcinoma); experiment: Seven-day in vitro cytotoxicity, MCF-7; assay type: cell-based; settings: for IC50: MCF7, 168 h
Description: (§1) The brine shrimp (Artemia salina Leach) test (BST) was performed as modified to determine LC50 values in μg/ml. Seven-day in vitro cytotoxicity tests against human tumor cell lines were carried out at the Purdue Cancer Center, using standard protocols for A-549 (human lung carcinoma), MCF-7 (human breast carcinoma) and HT-29 (human colon carcinoma) with adriamycin as a positive control. The reported ED50 values in μg/ml (Table 5) were tabulated from the same run in order to facilitate comparison for the SAR's.
(§2) Bioassays. The brine shrimp (Artemia salina Leach) test (BST) was performed as modified. Zhao et al., Phytochemistry, 33, p. 1065 (1993). Seven-day in vitro cytotoxicity tests against human tumor cell lines were carried out at the Purdue Cancer Center, using standard protocols for A-549 (human lung carcinoma), Gu, Z. M.; Fang, X.-P.; Miesbauer, L. R., Smith, D. L.; and McLaughlin, J. L., 30, 31, and 32-Hydroxybullatacinones: Bioactive Terminally-Hydroxylated Annonaceous Acetogenins from Annona bullata., J. Nat. Prod., 1993, 56, 870-876; MCF-7 (human breast carcinoma) McLaughlin, J. L., Chang, C.-J., and Smith, D. L., Simple Bench-Top Bioassays (Brine Shrimp and Potato Discs) for the Discoveries of Plant Antitumor Compounds: A Review of Recent Progress. In Kinghorn, A. D., Balandrin, J. (Eds): "Human Medicinal Agents from Plants", ACS Symposium Series, Washington, D.C., American Chemical Society, 1993, pp. 112-137; and HT-29 (human colon carcinoma), Mclaughlin, J.L., Chang, C.-J., Smith, D.L., "'Bench-Top' Bioassays for the Discovery of Bioactive Natural Products: An Update", in Rahman, Atta-ur- (Ed): "Studies in Natural Product Chemistry", Vol. 9, Amsterdam, Elsevier, 1991, pp. 383-409, with adriamycin as a positive control. The reported values (Table IV) were tabulated from the same run in order to facilitate comparison for the SAR's.
(§3) Bioassay. The extracts, fractions, and isolates were routinely evaluated for lethality to brine shrimp larvae (BST). Cytotoxicities against human solid tumor cells were measured at the Purdue Cell Culture Laboratory, Purdue Cancer Center, for the A-549 lung carcinoma, MCF-7 breast carcinoma, and HT-29 colon adenocarcinoma.
(§4) The brine shrimp lethality test (BST), on newly hatched naupleii, was performed in our laboratory as previously described. McLaughlin, Methods in Plant Biochemistry, Vol. 6, Hostettmann, Academic Press, London, pp. 1-33 (1991). Seven day cytotoxicities against human solid tumor cells were measured at the Cell Culture Laboratory, Purdue Cancer Center, for the A-549 lung carcinoma, MCF-7 breast carcinoma, and HT-29 colon adenocarcinoma. The respiratory functions of rat liver mitochondria (RMB) were measured polarographically by determination of their rates of oxygen consumption after the addition of acetogenins or their derivatives.

[2] = tested on: brine shrimp (Artemia salina Leach); experiment: Brine shrimp lethality test (BST); assay type: in vivo; settings: Artemia salina, read-out: BST LC50
Description: as §1, §2, §3, §4

[3] = tested on: HT-29 (human colon adenocarcinoma); experiment: Seven-day in vitro cytotoxicity, HT-29; assay type: cell-based; settings: for IC50: HT-29, 168 h
Description: as §1, §2, §3, §4

[4] = tested on: HT-29 (human colon adenocarcinoma); experiment: Seven-day in vitro cytotoxicity, HT-29; assay type: cell-based; settings: HT-29, 168 h, read-out: HT-29 LC50, Table 5, same run
[5] = tested on: A-549 (human lung carcinoma); experiment: Seven-day in vitro cytotoxicity, A-549; assay type: cell-based; settings: for IC50: A549, 168 h
Description: as §1, §2, §3, §4

[6] = tested on: A2780 human ovarian cancer xenografts; settings: 50 μg/kg; athymic mice bearing A2780 human ovarian cancer xenografts; cited from earlier work
rat liver mitochondria = experiment: Rat mitochondrial bioassay (RMB), inhibition of oxygen uptake; assay type: biochemical; settings: for mitochondrial inhibition: rat liver mitochondria, result in words; for RMB IC50: Table 17, oxygen consumption of rat liver mitochondria, parent and acetal derivative in the same run
Description: as §4
The oxidative phosphorylation pathway (or electron transport chain) is responsible for oxidizing NADH to NAD^+ and producing ATP from ADP and phosphate within the mitochondria. There are five enzyme complexes in this pathway: NADH-ubiquinone reductase (complex I), succinate-ubiquinone reductase (complex II), ubiquinone-cytochrome c reductase (complex III), cytochrome c oxidase (complex IV) and the F0 F1 -ATPase complex (complex V). The end point of the oxidative phosphorylation pathway is the reduction of oxygen (O2) to water in the mitochondria (thus, it is also called respiration), coupled with the synthesis of ATP by complex V. State 4 respiration is the oxidation of substrates in the absence of a phosphate acceptor (e.g., ADP). State 3 respiration occurs when a phosphate acceptor is present and oxygen utilization increases. The ratio of State 3 respiration to State 4 respiration is the respiratory control ratio (RCR).
The process of respiration can be measured by using an oxygen electrode to detect the amount of oxygen present in the assay cell. If respiration is occurring normally, the concentration of oxygen should slowly decrease as it is reduced to water. However, if there is some type of inhibition of oxidative phosphorylation occurring, the oxygen level will no longer decrease at the same rate. This rate of oxygen usage can be visualized by a chart recorder connected to the oxygen electrode. At normal respiration,a decreasing baseline slope will be established. During inhibition, however, the baseline slope should decrease (i.e., the slope will move closer to zero), since the oxygen present is no longer being reduced. In other words, the oxygen concentration in the assay cell is no longer decreasing at the same rate as in normal respiration. Furthermore, inhibition sites at specific complexes can be determined by competitive inhibition studies. This is accomplished by addition of a known inhibitor of, e.g., complex I, followed by the new respiration-inhibiting compound. […] This can be verified by trying inhibitors at other sites and by reversing the order, i.e., adding the new compound and then the known inhibitor.
The method for isolating rat liver mitochondria essentially followed the published methodology. Ahammadsahib et al., Life Sciences, 53, pgs. 1113-1120 (1993). The isolation buffer used for the isolation of mitochondria from rat liver consisted of 4 mM Tris-HC1, 0.5 mM EDTA, and 250 mM sucrose at a pH of 7.4. The isolation buffer was kept at refrigeration temperature at all times by storing on ice during the whole procedure. The rats were supplied by Sprague-Dawley, were male, and weighed approximately 300-320 grams. They were sacrificed with carbon dioxide, and the livers were removed and immediately placed in the isolation buffer on ice. The livers were then rinsed with several washings of cold buffer, cut into pieces, and homogenized. The homogenates were then centrifuged (Sorvall Superspeed RC2-B, 4° C) for 10 minutes at approximately 2000 rpms; the supernatant was next centrifuged for 20 minutes at approximately 9000 rpms. The pellet was reserved and resuspended in 2 ml of assay buffer with a glass pipet. The assay buffer consisted of 100 mM KC1, 5 mM KH2 PO4, 1 mM EDTA, 5 mM glutamate, 1 mM malate, and 20 mM Tris-HCl at a pH of 7.4 and was stored at room temperature. […]

[7] = read-out: MCF-7 ED50, Table 17, seven day cytotoxicity, same run
[8] = read-out: MCF-7 LC50, Table 5, seven-day cytotoxicity, same run
[9] = read-out: HT-29 ED50, Table 17, seven day cytotoxicity, same run
[10] = Table 17, seven day cytotoxicity, same run, read-out: MCF-7 ED50
[11] = Table 17, seven day cytotoxicity, same run, read-out: HT-29 ED50
[12] = Table 17, seven day cytotoxicity, same run, read-out: A-549 ED50

Row | SMILES | IC50 [1, 7] [ng/mL] | LC50 ([2]; Table 17, same run) [ng/mL] | IC50 ([5]; read-out: A-549 ED50) [ng/mL] | IC50 [1, 10] [ng/mL] | IC50 [3, 11] [ng/mL] | RMB IC50 (rat liver mitochondria) [n moles/Lt/mg protein] | IC50 [5, 12] [ng/mL] | also measured
1 | COc1cccc2c1C(=O)c1c(O)c3c(c(O)c1C2=O)C[C@@](O)(C(=O)CO)C[C@@H]3O[C@H]1C[C@H](N)[C@H](O)[C@H](C)O1 [Adriamycin, adriamycin, reference compound] | 401 (≈ 738 nM) | 80 (≈ 147 nM) | 4.19 (≈ 7.71 nM) | – | – | – | – | IC50 [1, 8]: 17.6 ng/mL (≈ 32.4 nM); IC50 ([1]; read-out: MCF-7 LC50, Table 12, same run): 231 ng/mL (≈ 425 nM); EC50 ([1]; MCF7, read-out: MCF-7): 519 ng/mL (≈ 955 nM); LC50 ([2]; Table 5, brine shrimp larvae): 257 ng/mL (≈ 473 nM); LC50 ([2]; Table 12): 80 ng/mL (≈ 147 nM); IC50 [3, 9]: 35.5 ng/mL (≈ 65.3 nM); IC50 ([3]; read-out: HT-29 LC50, Table 12, same run): 39.2 ng/mL (≈ 72.1 nM); EC50 ([3]; HT-29, read-out: HT-29): 37.2 ng/mL (≈ 68.4 nM); IC50 [4]: 0.153 ng/mL (≈ 0.281 nM); IC50 ([5]; read-out: A-549 LC50): 0.104 ng/mL (≈ 0.191 nM); EC50 ([5]; A549, read-out: A-549): 8.5 ng/mL (≈ 15.6 nM)
2 | CCCCCCCCCC[C@H](O)[C@H]1CC[C@H]([C@H]2CC[C@H]([C@H](O)CCCCCCCCCC[C@@H](O)CC3=C[C@H](C)OC3=O)O2)O1 [Bullatacin, reference compound] | – | – | – | – | – | – | – | tumor growth inhibition (TGI) [6]: 67%; mitochondrial inhibition (rat liver mitochondria): high activity
3 | CCCCCCCCCCC(O)C1CCC(C2CCC(C(O)CCCCC(O)CCCCCCCC3=CC(C)OC3=O)O2)O1 (stereo not drawn) [Compound 1, Bullatin] | – | – | – | – | – | – | – | IC50 [1, 8]: 0.00833 ng/mL (≈ 0.0134 nM); LC50 ([2]; Table 5, brine shrimp larvae): 4 ng/mL (≈ 6.42 nM); mitochondrial inhibition (rat liver mitochondria): high activity; IC50 [4]: 0.00378 ng/mL (≈ 0.00607 nM); IC50 ([5]; read-out: A-549 LC50): 0.00939 ng/mL (≈ 0.0151 nM)
4 | CCCCCCCCCCCCCC[C@@H](O)[C@H]1CC[C@H]([C@H]2CC[C@@H](CCCCC[C@@H](O)CC3=C[C@H](C)OC3=O)OCO2)O1 [Compound 9, 10,13-Formaldehyde acetal derivative of goniothalamicin] | – | 53.8 (≈ 88.4 nM) | – | 0.409 (≈ 0.672 nM) | 0.0219 (≈ 0.036 nM) | 203.1 | 1050 (≈ 1720 nM) | –
5 | CCCCCCCCCCCCCC[C@H]1OCO[C@@H]1CC[C@H](O)[C@@H]1CC[C@@H](CCCCC[C@@H](O)CC2=C[C@H](C)OC2=O)O1 [Compound 12, 17,18-formaldehyde acetal derivative] | – | 7.5 (≈ 12.3 nM) | – | 268 (≈ 440 nM) | – | 290.3 | 69.5 (≈ 114 nM) | –
6 | CCCCCC[C@H]1CCC[C@@H]([C@H]2CC[C@H]([C@H]3CC[C@@H]([C@@H]4CC[C@@H](CCCCCCCCCC5=C[C@H](C)OC5=O)O4)OCO3)O2)OCO1 [Compound 14, 16,19- and 24,28-bis-formaldehyde acetal derivative] | – | 10200 (≈ 15400 nM) | – | 1 (≈ 1.51 nM) | 0.000289 (≈ 0.000436 nM) | – | 1780 (≈ 2680 nM) | –
7 | CCCCCCCCCC[C@H](O)[C@H]1CC[C@H]([C@H](O)CC[C@H](O)[C@@H]2CC[C@@H](CCCCCCC[C@@H](O)CC3=C[C@H](C)OC3=O)O2)O1 [Compound 18, Bullatalicin, reference compound] | – | 1200 (≈ 1880 nM) | – | 262 (≈ 410 nM) | 6.48e-05 (≈ 0.000101 nM) | 19.2 | – | –
8 | CCCCCCCCCC[C@@H](O)[C@H]1CC[C@H]([C@H](O)CC[C@H](O)[C@@H]2CC[C@@H](CCCCCCC[C@@H]3CC(CC(C)=O)C(=O)O3)O2)O1 (stereo partly drawn) [Compound 24, (2,4-Cis and trans)bullatanocinones, reference compound] | 293 (≈ 459 nM) | 280 (≈ 438 nM) | 0.643 (≈ 1.01 nM) | – | – | 61.1 | – | IC50 [3, 9]: 2.34e-05 ng/mL (≈ 3.66e-05 nM)
9 | CCCCCCCCCC[C@@H](O)[C@H]1CC[C@H]([C@H]2CC[C@@H]([C@@H]3CC[C@@H](CCCCCCC[C@@H]4CC(CC(C)=O)C(=O)O4)O3)OCO2)O1 (stereo partly drawn) [Compound 25, 16,19-Formaldehyde acetal derivatives of (2,4-cis and trans)-bullatanocinones] | – | 15 (≈ 23 nM) | – | 1280 (≈ 1970 nM) | – | 28.3 | 0.0677 (≈ 0.104 nM) | –
10 | CCCCCCCCCC[C@H](O)[C@H]1CC[C@H]([C@H](O)CC[C@H](O)[C@@H]2CC[C@@H](CCCCCCC[C@@H]3CC(CC(C)=O)C(=O)O3)O2)O1 (stereo partly drawn) [Compound 26, (2,4-Cis and trans)-bullatalicinones, reference compound] | 1.57 (≈ 2.46 nM) | 470 (≈ 736 nM) | 0.0562 (≈ 0.088 nM) | – | – | 23.0 | – | –
